Reference: patent US11260034B2, “Method of using niclosamide derivatives” (CHANG GUNG UNIVERSITY, priority 2016, dated 2022)

How the values were obtained:
[1] = system: washed platelet samples, platelet aggregation induced by collagen; test: platelet aggregation test, washed platelets stimulated with collagen (light transmission); format: cell-based; details: for collagen-induced platelet aggregation: FIG. 8; for aggregation percentage: FIG. 9
Procedure: FIG. 1 is a diagram illustrating a platelet aggregation test, in accordance with at least one embodiment of the present invention. In FIG. 1, N and C represent the administrations of niclosamide in 0.25% dimethyl sulfoxide (DMSO) or collagen respectively. The platelet aggregation test was performed in accordance with the standard procedure. Four washed platelet samples from the same source were treated with the same volume of niclosamide (0.5 μM, 1 μM, and 2 μM) or a solvent control respectively. Five minutes later, each washed platelet sample was treated with collagen (2 μM) to induce platelet aggregation. FIG. 1 illustrates the light transmission rates of each result. In FIG. 1, the X-axis represents time and the Y-axis represents the transmittance. Note that in FIG. 1, the four platelet aggregation tests performed simultaneously are presented sequentially on the X-axis to render the data readable for one skilled in the art. […] The platelet aggregation test was performed in accordance with the standard procedure. Four washed platelet samples from the same source were treated with the same volume of niclosamide (0.5 μM, 1 μM, and 2 μM) or a solvent control respectively. Five minutes, each washed platelet sample was treated with 2 μM collagen to induce platelet aggregation. The results were detected twenty minutes after the administration of collagen. In FIG. 2, the Y-axis represents the percentage of platelet aggregation, in which the transmittance of platelet-poor plasma is set as 100%. FIG. 8 is a diagram illustrating a platelet aggregation test, in accordance with at least one embodiment of the present invention. Four washed platelet samples from the same source were treated with different treatments at the same time. In FIG. 8, “D” represents the administration of 0.25% DMSO; “C” represents the administration of collagen; “N” represents the administration of niclosamide in 0.25% DMSO; and “S” represents the administration of a STAT-3 inhibitor, STA-21. […] Four washed platelet samples from the same source were treated with different treatments at the same time. In FIG. 9, “D” represents 0.25% DMSO; “STA-21” represents the STAT-3 inhibitor, STA-21; “Niclosamide” represents the niclosamide in 0.25% DMSO; and “Collagen” represents the stimulant, collagen.

[2] = system: washed platelet sample, clot formation induced by collagen; test: optical microscope images of platelet aggregation test; format: cell-based; details: FIG. 4C; 2 μM niclosamide and 2.5 μM collagen
Procedure: FIGS. 4A-4C are optical microscope images of a platelet aggregation test, in accordance with at least one embodiment of the present invention. The platelet aggregation test was performed in accordance with the standard procedure on three washed platelet samples from the same source at the same time. […] In FIG. 4C, the washed platelet sample 10 received 2 μM niclosamide and 2.5 μM collagen; In FIG. 4B, the washed platelet sample 10 received 2.5 μM collagen and 0.25% DMSO with the same volume of the niclosamide in FIG. 4C. Note that 0.25% DMSO is the solvent of the niclosamide in FIG. 4C. […] In FIG. 4B, clots 20 formed as a result of the treatment of collagen and DMSO.

mice [3] = test: tail bleeding assay; format: in vivo; details: FIG. 10; mice 8-10 weeks; 20 mg/kg injected into the abdomen, 1 h before; distal 3-mm tail segment amputated; DMSO control 5 minutes
Procedure: FIG. 10 is diagram illustrating the bleeding time results, in accordance with at least one embodiment of the present invention. Mice at 8-10 weeks of age were used in FIG. 10. Isoflurane was provided based on the body weight to anesthetize the mice one hour after the 20 mg/kg niclosamide or 5% DMSO was injected into the abdomen. Followed the standard procedure of tail bleeding assay, the distal 3-mm segment of the tail was amputated with scalpel after the anesthetization. The tails were than immersed in isotonic saline at 37° C. to observe the bleeding time. […] However, the bleeding time for mice treated with niclosamide was extended to around 15 minutes.

[4] = system: washed platelet samples, platelet aggregation induced by podoplanin; test: platelet aggregation test, washed platelets stimulated with podoplanin; format: cell-based; details: FIG. 6; niclosamide 0.5 μM, 1 μM or 2 μM vs solvent control; 0.4 μM podoplanin; read 20 min after podoplanin
Procedure: FIG. 6 is a bar chart representing the quantitative results of a platelet aggregation test, in accordance with at least one embodiment of the present invention. All procedures in FIG. 6 are the same as the procedures in FIG. 2, except that the collagen used to stimulate platelet aggregation in FIG. 2 is substituted by podoplanin in FIG. 6. In this embodiment, four washed platelet samples from the same source were treated with the same volume of niclosamide (0.5 μM, 1 μM, and 2 μM) or a solvent control respectively. Five minutes, each washed platelet sample was treated with 0.4 μM podoplanin to induce platelet aggregation. The results were detected twenty minutes after the administration of podoplanin. In FIG. 6, the Y-axis represents the percentage of platelet aggregation, in which the transmittance of platelet-poor plasma is used as 100%.

[5] = Int J Risk Saf Med 20 (2008) 113-122; cited from earlier work
mice [6] = test: ferric chloride occlusive thrombosis of mesenteric arteries; format: in vivo; details: FIG. 11; mice 8-10 weeks; 20 mg/kg injected into the abdomen; 7.5% FeCl3 on mesenteric arteries for 2 min; DMSO control 5 minutes
Procedure: FIG. 11 is diagram illustrating the occlusion time, in accordance with at least one embodiment of the present invention. Mice at 8-10 weeks of age were used in FIG. 11. About 20 nM 3,3′-Dihexyloxacarbocyanine iodide (DioC6), a fluorescent dye used for the staining of platelets, was injected into the orbital vein after 20 mg/kg niclosamide or 5% DMSO was injected into the abdomen. An hour later, isoflurane was provided based on the body weight to anesthetize the mice. Followed the standard procedure for studying occlusive thrombosis, Whatman #1 filter papers soaked with 7.5% ferric chloride (FeCl3) were attached to the mesenteric arteries for two minutes. The mesenteric arteries were then immersed in isotonic saline and placed under a fluorescence microscope (Macrofluo, objective 5.0/0.5 NA, Leica Micro-systems) to record the occlusion time and cessation of blood flow.

pSYK and PLCγ2 = test: western blot of proteins in the signal transduction pathway of platelet aggregation; format: cell-based; details: FIG. 3; 2 μM niclosamide pretreatment, 2.5 μM collagen
Procedure: FIG. 3 is a western blot image showing proteins in the signal transduction pathway of platelet aggregation, in accordance with at least one embodiment of the present invention. In FIG. 3, pSYK and PLCγ2 in the signal transduction pathway are suppressed in the washed platelet sample received 2 μM niclosamide, even that is treated with 2.5 μM collagen to induce platelet aggregation. In contrast, the pSYK and PLCγ2 in the washed platelet sample received a solvent control (0.25% DMSO) pretreatment are successfully activated after the 2.5 μM collagen treatment.

Compound	collagen-induced platelet aggregation ([1]; pretreated with 1.25 μM STA-21, 2 μM collagen)	aggregation percentage ([1]; 1.25 μM STA-21 and 2 μM collagen (DMSO control exceeds 60%))	platelet aggregation / clots under 20× optical microscope [2]	bleeding time (mice [3])	platelet aggregation induced by collagen (transmittance over time) ([1]; FIG. 1, niclosamide 0.5 μM, 1 μM, 2 μM given 5 min before collagen 2 μM)	percentage of platelet aggregation ([1]; FIG. 2, niclosamide 0.5 μM, 1 μM or 2 μM vs solvent control, 2 μM collagen, read 20 min after collagen, p<0.01)	collagen-induced platelet aggregation ([1]; pretreated with 0.25 μM niclosamide, 2 μM collagen)	aggregation percentage ([1]; 0.25 μM niclosamide and 2 μM collagen (DMSO control exceeds 60%))	IC50 relative to STA-21 ([1]; FIGS. 8 and 9, collagen-induced platelet aggregation)	percentage of platelet aggregation [4]	safety profile under current conditions of use [5]	occlusion time (mice [6])	pSYK and PLCγ2 in the signal transduction pathway (pSYK and PLCγ2)
C[C@@H]1CC(=O)c2c(ccc3c2C(=O)c2cccc(O)c2C3=O)C1 [STA-21, ochromycinone]	suppressed	less than 40%	–	–	–	–	–	–	–	–	–	–	–
O=C(Nc1ccc([N+](=O)[O-])cc1Cl)c1cc(Cl)ccc1O [niclosamide, 5-chloro-N-(2-chloro-4-nitrophenyl)-2-hydroxybenzamide]	–	–	No platelet aggregation is observed	around 15 minutes	suppresses the platelet aggregation induced by collagen in a dose-dependent manner	significantly reduced	suppressed	less than 30%	lower IC50 compared to STA-21	significantly reduced	there is no information to suggest an unfavorable safety profile of the drug under current conditions of use	around 25 minutes	suppressed
